# Laboratory results taken from patent US20230117034A1, “PYRAZOLOTRIAZINES” (Bayer Aktiengesellschaft, priority 2019, published 2023).
# Legend:
# CDK12/CycK = CDK12/CycK (Homo sapiens, UniProt Q9NYV4); experiment: CDK12/CycK high ATP kinase assay (TR-FRET, 2 mM ATP); format: biochemical; details: 2 mM ATP (high ATP); median; read-out: CDK12/CyclinK, 2 mM ATP (high ATP), IC50-[mol/l] (median)
# Outline: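 Read-out is TR-FRET (Eu-anti-rabbit IgG, anti-phospho-c-Myc Ser62 antibody, streptavidin-XL665) after EDTA stop. Reaction ran 60 min at 22 °C using 1 µM biotin-peptide and high ATP (2 mM) with roughly 0.75 nM recombinant CDK12/CycK, after 15 min compound pre-binding; normalised emission ratios yield IC50.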
# [1] = target: T1, CDK12 protein level in CAL-120 breast cancer cells (Homo sapiens, UniProt Q9NYV4); experiment: CDK12 protein level: Protein Simple (CDK12, CAL-120); format: cell-based; details: CAL-120 cells, 18 h with compound, CDK12/HSP90 peak area ratio vs vehicle, median, read-out: CDK12 protein level in CAL-120 breast ca cells, DC50-[mol/l] (median)
# T1 construct: endogenous in cells; host or cells: CAL-120 human breast cancer cells (DSMZ ACC 459)
# T1 sequence (Q9NYV4 whole entry): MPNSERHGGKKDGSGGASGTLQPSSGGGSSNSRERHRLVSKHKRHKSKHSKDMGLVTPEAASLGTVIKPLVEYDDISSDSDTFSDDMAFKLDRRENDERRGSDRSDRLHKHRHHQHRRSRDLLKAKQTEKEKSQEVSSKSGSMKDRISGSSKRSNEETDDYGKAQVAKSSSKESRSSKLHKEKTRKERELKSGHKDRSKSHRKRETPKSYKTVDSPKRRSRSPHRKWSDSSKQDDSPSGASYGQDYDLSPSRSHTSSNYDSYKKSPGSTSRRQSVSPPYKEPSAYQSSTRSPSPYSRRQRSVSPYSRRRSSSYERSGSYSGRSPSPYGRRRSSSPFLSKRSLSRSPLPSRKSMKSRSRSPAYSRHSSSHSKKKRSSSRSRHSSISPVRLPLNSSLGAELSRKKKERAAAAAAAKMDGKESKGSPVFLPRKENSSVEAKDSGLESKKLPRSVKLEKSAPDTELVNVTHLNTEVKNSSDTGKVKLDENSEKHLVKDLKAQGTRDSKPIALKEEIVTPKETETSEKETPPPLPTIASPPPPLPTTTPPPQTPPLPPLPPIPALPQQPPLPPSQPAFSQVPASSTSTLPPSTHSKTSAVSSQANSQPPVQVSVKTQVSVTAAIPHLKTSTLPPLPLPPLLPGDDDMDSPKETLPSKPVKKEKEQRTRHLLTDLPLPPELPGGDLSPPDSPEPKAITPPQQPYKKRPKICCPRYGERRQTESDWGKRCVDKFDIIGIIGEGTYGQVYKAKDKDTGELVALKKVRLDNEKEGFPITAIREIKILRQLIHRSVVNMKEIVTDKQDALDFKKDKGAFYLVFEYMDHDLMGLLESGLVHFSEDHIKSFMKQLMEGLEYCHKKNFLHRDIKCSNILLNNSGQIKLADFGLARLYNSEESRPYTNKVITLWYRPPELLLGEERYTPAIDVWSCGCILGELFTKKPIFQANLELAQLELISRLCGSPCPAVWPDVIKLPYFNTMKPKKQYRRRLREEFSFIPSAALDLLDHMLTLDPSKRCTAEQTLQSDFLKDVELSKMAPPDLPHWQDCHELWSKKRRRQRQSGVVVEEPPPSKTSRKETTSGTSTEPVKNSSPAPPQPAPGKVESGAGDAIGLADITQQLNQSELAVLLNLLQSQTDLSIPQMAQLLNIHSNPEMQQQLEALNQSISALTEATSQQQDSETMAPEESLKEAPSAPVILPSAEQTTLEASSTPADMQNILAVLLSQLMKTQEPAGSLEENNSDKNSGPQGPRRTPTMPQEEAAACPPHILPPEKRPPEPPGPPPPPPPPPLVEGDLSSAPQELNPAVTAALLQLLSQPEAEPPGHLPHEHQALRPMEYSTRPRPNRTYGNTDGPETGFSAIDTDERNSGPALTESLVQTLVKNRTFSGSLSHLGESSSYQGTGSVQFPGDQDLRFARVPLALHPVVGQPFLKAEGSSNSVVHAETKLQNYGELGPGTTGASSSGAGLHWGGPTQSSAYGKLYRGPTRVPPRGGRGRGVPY
# T1 sequence (O75909 whole entry partner): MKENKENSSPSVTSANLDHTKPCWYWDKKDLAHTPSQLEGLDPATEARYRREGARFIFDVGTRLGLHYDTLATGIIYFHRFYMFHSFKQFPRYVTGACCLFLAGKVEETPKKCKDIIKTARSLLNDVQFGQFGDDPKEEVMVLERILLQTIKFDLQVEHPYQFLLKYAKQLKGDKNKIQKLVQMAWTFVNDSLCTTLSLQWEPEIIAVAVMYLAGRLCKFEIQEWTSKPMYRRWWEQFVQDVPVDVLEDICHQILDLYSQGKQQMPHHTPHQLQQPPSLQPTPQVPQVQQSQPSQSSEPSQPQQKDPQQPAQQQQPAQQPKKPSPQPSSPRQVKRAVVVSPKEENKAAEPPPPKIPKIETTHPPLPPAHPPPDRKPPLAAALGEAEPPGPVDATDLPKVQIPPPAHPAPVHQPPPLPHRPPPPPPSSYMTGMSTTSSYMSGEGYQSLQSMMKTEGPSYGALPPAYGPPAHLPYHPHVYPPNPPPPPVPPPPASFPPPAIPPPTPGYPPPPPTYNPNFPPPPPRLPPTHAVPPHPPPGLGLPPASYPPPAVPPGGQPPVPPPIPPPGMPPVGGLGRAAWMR
# Outline: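 Cells grown 24 h, then treated with compounds for 18 h at 37° C against DMSO controls. Lysates (0.4 microgramms protein) run on Protein Simple 66-440 kDa size assay with CDK12 and HSP90 loading-control antibodies. CDK12/HSP90 peak-area ratios versus vehicle gave DC50 (50% reduction) by 4-parameter fit.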
# [2] = target: T2, CYCLIN K (nuclear staining in CAL-120 cells) (Homo sapiens, UniProt O75909); experiment: CYCLIN K nuclear protein level: immunofluorescence high content analysis (CAL-120); format: cell-based; details: 24 h, 50% reduction of nuclear CCNK staining intensity, median, read-out: CYCLIN K degradation IF, DC50-[mol/l] (median)
# T2 construct: endogenous in cells; host or cells: CAL-120 human breast cancer cells (DSMZ ACC 459)
# T2 sequence (O75909 whole entry): as the sequence (O75909 whole entry partner) above
# T2 sequence (Q9NYV4 whole entry partner): as the sequence (Q9NYV4 whole entry) above
# Outline: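 Readout is automated confocal image analysis of nuclear cyclin K immunofluorescence (Hoechst nuclei) after PFA fixation. Cells were CAL-120, exposed to compound dose-response 24 h at 37 °C; values are DC50 for halving nuclear CCNK signal relative to DMSO and control wells.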
# CDK12/CycK, sequence (Q9NYV4 with tags, fused parts or gaps): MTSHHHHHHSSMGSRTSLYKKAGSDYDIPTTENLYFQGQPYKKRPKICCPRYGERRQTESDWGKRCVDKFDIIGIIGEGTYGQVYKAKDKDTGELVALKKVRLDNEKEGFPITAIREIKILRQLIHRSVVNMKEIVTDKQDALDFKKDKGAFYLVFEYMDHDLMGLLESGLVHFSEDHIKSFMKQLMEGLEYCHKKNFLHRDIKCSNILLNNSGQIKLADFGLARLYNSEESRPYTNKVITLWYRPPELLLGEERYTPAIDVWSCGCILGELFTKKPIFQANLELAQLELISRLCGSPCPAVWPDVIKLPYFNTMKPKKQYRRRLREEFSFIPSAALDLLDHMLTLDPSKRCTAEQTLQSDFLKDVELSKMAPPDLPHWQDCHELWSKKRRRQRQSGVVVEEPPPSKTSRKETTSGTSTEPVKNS
# CDK12/CycK, sequence (O75909 1-300 partner limits assumed): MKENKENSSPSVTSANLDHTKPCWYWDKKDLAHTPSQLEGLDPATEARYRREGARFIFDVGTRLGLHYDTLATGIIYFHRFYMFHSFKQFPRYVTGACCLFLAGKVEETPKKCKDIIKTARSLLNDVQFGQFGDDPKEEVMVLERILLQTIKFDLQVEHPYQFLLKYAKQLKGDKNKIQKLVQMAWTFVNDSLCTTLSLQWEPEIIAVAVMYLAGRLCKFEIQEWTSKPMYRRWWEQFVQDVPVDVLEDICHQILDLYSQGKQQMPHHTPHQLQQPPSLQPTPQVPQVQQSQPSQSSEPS
SMILES,IC50 (CDK12/CycK) [nM],DC50 [1] [nM],DC50 [2] [nM]
"Fc1ccc(-c2nnc(CNc3nc(N4CCOCC4)nc4c(Br)cnn34)[nH]2)cc1 [Example 29, 8-bromo-N-{[5-(4-fluorophenyl)-4H-1,2,4-triazol-3-yl]methyl}-2-(morpholin-4-yl)pyrazolo[1,5-a][1,3,5]triazin-4-amine]",3670,9.15,3.36
"CN(CC(C)(C)O)c1nc(NCc2nc3cc(Cl)c(Cl)cc3[nH]2)n2ncc(Br)c2n1 [Example 331, 1-[(8-bromo-4-{[(5,6-dichloro-1H-benzimidazol-2-yl)methyl]amino}pyrazolo[1,5-a][1,3,5]triazin-2-yl)(methyl)amino]-2-methylpropan-2-ol]",350,–,0.44
"Fc1ccc2[nH]c(CNc3nc(N4CC5CCC(C4)N5)nc4c(Cl)cnn34)nc2c1F.O=CO [Example 360, formic acid 8-chloro-2-(3,8-diazabicyclo[3.2.1]octan-3-yl)-N-[(4,5-difluoro-1H-benzimidazol-2-yl)methyl]pyrazolo[1,5-a][1,3,5]triazin-4-amine]",4010,–,0.709
"CN1CCN(c2nc(NCc3nc4c(F)c(Cl)ccc4[nH]3)n3ncc(Br)c3n2)CC1 [Example 373, 8-bromo-N-[(5-chloro-4-fluoro-1H-benzimidazol-2-yl)methyl]-2-(4-methylpiperazin-1-yl)pyrazolo[1,5-a][1,3,5]triazin-4-amine]",3060,–,0.0805
"Cc1[nH]c(CNc2nc(N3CCOCC3)nc3c(Br)cnn23)nc1-c1ccccc1 [Example 27, 8-bromo-N-[(5-methyl-4-phenyl-1H-imidazol-2-yl)methyl]-2-(morpholin-4-yl)pyrazolo[1,5-a][1,3,5]triazin-4-amine]",3480,44.6,66.3
"Brc1cnn2c(NCc3nc4ccccc4[nH]3)nc(N3CCN4CCC3CC4)nc12 [Example 349, N-[(1H-benzimidazol-2-yl)methyl]-8-bromo-2-(1,4-diazabicyclo[3.2.2]nonan-4-yl)pyrazolo[1,5-a][1,3,5]triazin-4-amine]",8670,–,0.784
"Cc1cc2nc(CNc3nc(N4CCN(C)CC4)nc4c(Br)cnn34)[nH]c2cc1C [Example 342, 8-bromo-N-[(5,6-dimethyl-1H-benzimidazol-2-yl)methyl]-2-(4-methylpiperazin-1-yl)pyrazolo[1,5-a][1,3,5]triazin-4-amine]",6650,–,0.053
"CN(CC(C)(C)O)c1nc(NCc2nc3cc(C(F)(F)F)ccc3[nH]2)n2ncc(Br)c2n1 [Example 345, 1-{[8-bromo-4-({[5-(trifluoromethyl)-1H-benzimidazol-2-yl]methyl}amino)pyrazolo[1,5-a][1,3,5]triazin-2-yl](methyl)amino}-2-methylpropan-2-ol]",661,–,0.698
"Cc1cc2nc(CNc3nc(N4CC5CCC(C4)N5)nc4c(C5CC5)cnn34)[nH]c2cc1C [Example 326, 8-cyclopropyl-2-(3,8-diazabicyclo[3.2.1]octan-3-yl)-N-[(5,6-dimethyl-1H-benzimidazol-2-yl)methyl]pyrazolo[1,5-a][1,5]triazin-4-amine]",942,–,0.654
"Fc1c(Cl)ccc2[nH]c(CNc3nc(N4CCOCC4)nc4c(Br)cnn34)nc12 [Example 372, 8-bromo-N-[(5-chloro-4-fluoro-1H-benzimidazol-2-yl)methyl]-2-(morpholin-4-yl)pyrazolo[1,5-a][1,3,5]triazin-4-amine]",269,–,0.227
"Cc1ccnc2[nH]c(CNc3nc(N4CCOCC4)nc4c(C(C)C)cnn34)nc12 [Example 28, N-[(7-methyl-3H-imidazo[4,5-b]pyridin-2-yl)methyl]-2-(morpholin-4-yl)-8-(propan-2-yl)pyrazolo[1,5-a][1,3,5]triazin-4-amine]",3320,1.44,0.888
"CN1CCN(c2nc(NCc3nc4cc(Cl)c(Cl)cc4[nH]3)n3ncc(Br)c3n2)CC1 [Example 330, 8-bromo-N-[(5,6-dichloro-1H-benzimidazol-2-yl)methyl]-2-(4-methylpiperazin-1-yl)pyrazolo[1,5-a][1,3,5]triazin-4-amine]",4630,–,0.16
"CN1CCN(c2nc(NCc3nc4cc(F)c(F)cc4[nH]3)n3ncc(Br)c3n2)CC1 [Example 346, 8-bromo-N-[(5,6-difluoro-1H-benzimidazol-2-yl)methyl]-2-(4-methylpiperazin-1-yl)pyrazolo[1,5-a][1,3,5]triazin-4-amine]",12200,–,0.149
"CN(CC(C)(C)O)c1nc(NCc2nc3cc(F)c(Cl)cc3[nH]2)n2ncc(Br)c2n1 [Example 338, 1-[(8-bromo-4-{[(6-chloro-5-fluoro-1H-benzimidazol-2-yl)methyl]amino}pyrazolo[1,5-a][1,3,5]triazin-2-yl)(methyl)amino]-2-methylpropan-2-ol]",1180,–,0.17
"Fc1cc2nc(CNc3nc(N4CCOCC4)nc4c(Br)cnn34)[nH]c2cc1F [Example 341, 8-bromo-N-[(5,6-difluoro-1H-benzimidazol-2-yl)methyl]-2-(morpholin-4-yl)pyrazolo[1,5-a][1,3,5]triazin-4-amine]",2220,–,0.29
"FC(F)(F)c1ccc2[nH]c(CNc3nc(N4CC5CCC(C4)N5)nc4c(Br)cnn34)nc2c1 [Example 354, 8-bromo-2-(3,8-diazabicyclo[3.2.1]octan-3-yl)-N-{[5-(trifluoromethyl)-1H-benzimidazol-2-yl]methyl}pyrazolo[1,5-a][1,3,5]triazin-4-amine]",3740,–,1.65
"CC(C)c1cnn2c(NCc3ncc(-c4ccccc4)[nH]3)nc(N3CCN(C)CC3)nc12 [Example 31, 2-(4-methylpiperazin-1-yl)-N-[(5-phenyl-1H-imidazol-2-yl)methyl]-8-(propan-2-yl)pyrazolo[1,5-a][1,3,5]triazin-4-amine]",13600,10.9,–
"CN1CCN(c2nc(NCc3nc4cc(F)c(Cl)cc4[nH]3)n3ncc(Br)c3n2)CC1 [Example 337, 8-bromo-N-[(6-chloro-5-fluoro-1H-benzimidazol-2-yl)methyl]-2-(4-methylpiperazin-1-yl)pyrazolo[1,5-a][1,3,5]triazin-4-amine]",8720,–,0.369
"Fc1cc2nc(CNc3nc(N4CC5CCC(C4)N5)nc4c(Br)cnn34)[nH]c2cc1Cl [Example 348, 8-bromo-N-[(6-chloro-5-fluoro-1H-benzimidazol-2-yl)methyl]-2-(3,8-diazabicyclo[3.2.1]octan-3-yl)pyrazolo[1,5-a][1,3,5]triazin-4-amine]",2890,–,1.17
"Fc1c(Cl)ccc2[nH]c(CNc3nc(N4CCOCC4)nc4c(C5CC5)cnn34)nc12 [Example 370, N-[(5-chloro-4-fluoro-1H-benzimidazol-2-yl)methyl]-8-cyclopropyl-2-(morpholin-4-yl)pyrazolo[1,5-a][1,3,5]triazin-4-amine]",169,–,0.258
"Fc1c(Cl)ccc2[nH]c(CNc3nc(N4CC5CCC(C4)N5)nc4c(C5CC5)cnn34)nc12 [Example 379, N-[(5-chloro-4-fluoro-1H-benzimidazol-2-yl)methyl]-8-cyclopropyl-2-(3,8-diazabicyclo[3.2.1]octan-3-yl)pyrazolo[1,5-a][1,3,5]triazin-4-amine]",528,–,0.404
"Fc1cc2nc(CNc3nc(N4CCOCC4)nc4c(C(F)(F)F)cnn34)[nH]c2cc1F [Example 333, N-[(5,6-difluoro-1H-benzimidazol-2-yl)methyl]-2-(morpholin-4-yl)-8-(trifluoromethyl)pyrazolo[1,5-a][1,3,5]triazin-4-amine]",142,–,0.113
